Experimental data taken from patent US20230339878A1, “SLC26A3 INHIBITORS AND USE THEREOF” (THE REGENTS OF THE UNIVERSITY OF CALIFORNIA, priority 2018, published 2023).
“Also recorded” adds a separate entry of the source.

Columns and labels:
[1] = test system: mouse distal colonic closed loops; assay: Closed distal colonic loop fluid absorption in mice; assay type: in vivo; details: 10 µM intraluminal, 60 min
Method: Female CD1 mice (age 8-10 weeks) were given free access to Pedialyte (per liter: Na^+ 45 mEq, Cl^- 35 mEq, K^+ 20 mEq, dextrose 25 g; Abbott, Abbot Park, IL) but not solid food for 48 h before experiments. Mice were treated with 500 µL mineral oil once a day rectally (last dose 12 h before surgeries) during this period to evacuate the colon. Closed intestinal loops were isolated as described. Mice were anesthetized with isoflurane and body temperature was maintained during surgery at 36-38° C. using a heating pad. A small abdominal incision was made to expose the distal colon, and one closed distal colonic loop (length 1.5-2 cm) was isolated with sutures in each mouse. Loops were injected with 100 µL phosphate-buffered saline (PBS, pH: 7.4, in mM: 137 NaCl, 2.7 KCl, 8 Na2HPO4, 1.8 KH2PO4, 1 CaCl2, 0.5 MgCl2) without and with 10 µM Compound A1 and/or 10 µM tenapanor (MedChemExpress, Monmouth Junction, NJ). The abdominal incision was closed with sutures, and mice were allowed to recover from anesthesia. Colonic loops were removed at 0 and 60 min (in separate mice) and loop length and weight were measured to quantify fluid absorption. Luminal fluid was emptied with a syringe and pH was measured immediately using AB15 pH Meter (Thermo Fisher Scientific, South San Francisco, CA). In separate studies, mid-jejunal loops (length 2-3 cm, 3-4 loops per mouse) were isolated as described above, injected with 100 µL PBS without or with 10 µM Compound A1 and/or 10 µM tenapanor, and excised at 0 and 30 min to measure loop length and weight.
Closed intestinal loop studies in mice were done to study effects of Compound A1 on fluid absorption. […] Changes in luminal pH were also determined as a semi-quantitative measure of slc26a3-facilitated HCO3^- secretion / C1^- absorption, with slc26a3 inhibition predicted to reduce luminal fluid alkalinization. For these experiments, a phosphate-buffered solution (PBS) without HCO3^- / CO2 was used to avoid confounding effects of luminal carbonic anhydrases. […] Administration of the NHE3 (Na^+/H^+ exchanger 3) inhibitor tenapanor had no effect on weight/length ratio or luminal pH in distal colonic loops.

[2] = test system: cystic fibrosis (CF) mice (ΔF508 homozygous) lacking functional CFTR; assay: Loperamide-induced constipation model in cystic fibrosis mice; assay type: in vivo; details: 5 mg/kg oral
Method: Female CD1 mice (age 8-10 weeks) were administered loperamide (0.3 mg/kg, intraperitoneally, Sigma-Aldrich) to produce constipation. Compound A1 (DRAinh-A250) (5 mg/kg, in saline containing vehicle (5% DMSO and 10% Kolliphor HS 15; Sigma-Aldrich)), tenapanor (5 mg/kg, in vehicle), both compounds (5 mg/kg each, in vehicle), or vehicle alone were administered by oral gavage 1 hour before loperamide. After loperamide injection, mice were placed individually in metabolic cages with ad libitum access to food and water. Stool samples were collected for 3 h, and total stool weight and number of fecal pellets were quantified. To measure stool water content, stool samples were dried at 80° C. for 24 h and water content was calculated as [wet weight-dry weight]/wet weight. Similar studies were done in cystic fibrosis (CF) mice (ΔF508 homozygous) lacking functional CFTR.

SMILES: Cc1c(CC(=O)O)c(=O)oc2c(C)c(OCc3cccc(Br)c3)ccc12 [Compound A1]
- loop weight/length ratio (fluid absorption), distal colonic loops [1]: completely prevented the reduction in loop weight/length ratio; also recorded: blocked fluid absorption in closed colonic loops; also recorded: inhibits intestinal fluid absorption in mouse distal colon
- luminal pH, distal colonic loops [1]: reduced alkalinization of luminal fluid
- efficacy in loperamide-induced constipation in CF mice [2]: effective in loperamide-treated cystic fibrosis mice; also recorded: reduces loperamide-induced constipation
